Where two headings read alike, the source gives them in different places.
How the values were obtained:
HepG2 = assay: MTT antitumor assay, HepG2; settings: Homo sapiens, HepG2, read-out: IC50 (μM) HepG2
Description: (§2) The evaluation of the antitumour activity was performed using tetrazolium salt MTT (3–(4,5-dimethyl-2-thiazolyl)-2,5-diphenyl-2H-tetrazolium bromide) assay as reported[47–50].

MCF-7 = assay: MTT antitumor assay, MCF-7
Description: as §2

Caco-2 = assay: MTT antitumor assay, Caco-2; settings: Homo sapiens, Caco-2, read-out: IC50 (μM) Caco-2
Description: as §2

HCT-116 = assay: MTT antitumor assay, HCT-116
Description: as §2

EGFR = biological target: T1, EGFR (Homo sapiens, UniProt P00533); assay: Kinase inhibition assay (Kinase-Glo Plus), EGFR; type: biochemical; settings: read-out: % inhibition of 10 μM EGFR; 10 μM compound
T1 construct: purchased BPS Bioscience
Description: (§1) Luminescence signal was measured using a BioTek Synergy 2 microplate reader.

HER2 = biological target: T2, HER2 (Homo sapiens, UniProt P04626); assay: Kinase inhibition assay (Kinase-Glo Plus), HER2; type: biochemical; settings: read-out: % inhibition of 10 μM HER2; 10 μM compound
T2 construct: purchased BPS Bioscience
Description: as §1

HER4 = biological target: T3, HER4 (Homo sapiens, UniProt Q15303); assay: Kinase inhibition assay (Kinase-Glo Plus), HER4; type: biochemical; settings: read-out: % inhibition of 10 μM HER4; 10 μM compound
T3 construct: purchased BPS Bioscience
Description: as §1

cSrc = biological target: T4, cSrc (Homo sapiens, UniProt P12931); assay: Kinase inhibition assay (Kinase-Glo Plus), cSrc; type: biochemical; settings: for inhibition at 10 µM: read-out: % inhibition, 10 μM compound
T4 construct: purchased BPS Bioscience
Description: as §1

COX-1 = biological target: T5, COX-1 (Ovis aries, UniProt P05979); assay: In vitro COX-1 enzyme inhibition assay (colorimetric kit)
T5 sequence (P05979 25-600): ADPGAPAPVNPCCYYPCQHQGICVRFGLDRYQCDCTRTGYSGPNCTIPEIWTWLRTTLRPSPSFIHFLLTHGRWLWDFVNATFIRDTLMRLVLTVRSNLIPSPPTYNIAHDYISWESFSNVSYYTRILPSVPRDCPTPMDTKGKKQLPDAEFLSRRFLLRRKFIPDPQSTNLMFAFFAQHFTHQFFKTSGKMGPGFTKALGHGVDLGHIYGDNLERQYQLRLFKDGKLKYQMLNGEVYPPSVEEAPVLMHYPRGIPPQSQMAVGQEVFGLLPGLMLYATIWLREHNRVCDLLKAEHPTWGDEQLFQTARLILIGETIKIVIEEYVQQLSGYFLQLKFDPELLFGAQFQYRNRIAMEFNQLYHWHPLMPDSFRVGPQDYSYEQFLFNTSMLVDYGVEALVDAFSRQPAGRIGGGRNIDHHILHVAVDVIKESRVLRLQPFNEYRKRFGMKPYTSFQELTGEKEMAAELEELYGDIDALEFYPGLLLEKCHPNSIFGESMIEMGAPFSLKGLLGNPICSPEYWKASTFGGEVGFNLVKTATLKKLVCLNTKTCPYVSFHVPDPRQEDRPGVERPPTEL
Description: (§3) IC50 (represented in μM) (The half-maximal inhibitor concentration) values were determined[56–59], and the SI values were calculated[51]^,[52]^,[55] as IC50 (COX-1)/IC50 (COX-2).

COX-2 = biological target: T6, COX-2 (Ovis aries, UniProt P79208); assay: In vitro COX-2 enzyme inhibition assay (colorimetric kit); settings: for SI, selectivity index (COX-1 IC50/COX-2 IC50): COX-2 selectivity over COX-1
T6 sequence (P79208 17-603): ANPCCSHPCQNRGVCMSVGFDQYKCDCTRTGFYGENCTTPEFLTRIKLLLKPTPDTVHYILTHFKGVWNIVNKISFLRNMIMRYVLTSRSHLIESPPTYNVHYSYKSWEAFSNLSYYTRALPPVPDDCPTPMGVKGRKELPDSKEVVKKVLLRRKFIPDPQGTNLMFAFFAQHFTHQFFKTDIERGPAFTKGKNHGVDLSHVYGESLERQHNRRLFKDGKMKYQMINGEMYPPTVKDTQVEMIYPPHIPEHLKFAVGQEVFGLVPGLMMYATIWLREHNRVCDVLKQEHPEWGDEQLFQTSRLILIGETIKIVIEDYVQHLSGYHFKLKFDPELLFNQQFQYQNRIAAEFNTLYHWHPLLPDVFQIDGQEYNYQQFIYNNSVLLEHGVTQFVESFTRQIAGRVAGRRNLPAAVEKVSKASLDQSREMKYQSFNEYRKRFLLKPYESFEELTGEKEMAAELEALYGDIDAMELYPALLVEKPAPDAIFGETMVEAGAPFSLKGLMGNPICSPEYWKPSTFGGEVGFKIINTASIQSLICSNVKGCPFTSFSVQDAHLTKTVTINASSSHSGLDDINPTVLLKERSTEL
Description: as §3

[1] = Homo sapiens, MCF7, read-out: IC50 (μM) MCF-7, human breast adenocarcinoma cell line, MTT, mean ± SD, n = 3
[2] = Homo sapiens, HCT-116, read-out: IC50 (μM) HCT-116, human colon cancer cell line, MTT, mean ± SD, n = 3
[3] = read-out: IC50 (μM) MCF-7, human breast adenocarcinoma cell line, MTT, mean ± SD, n = 3

T3 sequence (Q15303 26-1308): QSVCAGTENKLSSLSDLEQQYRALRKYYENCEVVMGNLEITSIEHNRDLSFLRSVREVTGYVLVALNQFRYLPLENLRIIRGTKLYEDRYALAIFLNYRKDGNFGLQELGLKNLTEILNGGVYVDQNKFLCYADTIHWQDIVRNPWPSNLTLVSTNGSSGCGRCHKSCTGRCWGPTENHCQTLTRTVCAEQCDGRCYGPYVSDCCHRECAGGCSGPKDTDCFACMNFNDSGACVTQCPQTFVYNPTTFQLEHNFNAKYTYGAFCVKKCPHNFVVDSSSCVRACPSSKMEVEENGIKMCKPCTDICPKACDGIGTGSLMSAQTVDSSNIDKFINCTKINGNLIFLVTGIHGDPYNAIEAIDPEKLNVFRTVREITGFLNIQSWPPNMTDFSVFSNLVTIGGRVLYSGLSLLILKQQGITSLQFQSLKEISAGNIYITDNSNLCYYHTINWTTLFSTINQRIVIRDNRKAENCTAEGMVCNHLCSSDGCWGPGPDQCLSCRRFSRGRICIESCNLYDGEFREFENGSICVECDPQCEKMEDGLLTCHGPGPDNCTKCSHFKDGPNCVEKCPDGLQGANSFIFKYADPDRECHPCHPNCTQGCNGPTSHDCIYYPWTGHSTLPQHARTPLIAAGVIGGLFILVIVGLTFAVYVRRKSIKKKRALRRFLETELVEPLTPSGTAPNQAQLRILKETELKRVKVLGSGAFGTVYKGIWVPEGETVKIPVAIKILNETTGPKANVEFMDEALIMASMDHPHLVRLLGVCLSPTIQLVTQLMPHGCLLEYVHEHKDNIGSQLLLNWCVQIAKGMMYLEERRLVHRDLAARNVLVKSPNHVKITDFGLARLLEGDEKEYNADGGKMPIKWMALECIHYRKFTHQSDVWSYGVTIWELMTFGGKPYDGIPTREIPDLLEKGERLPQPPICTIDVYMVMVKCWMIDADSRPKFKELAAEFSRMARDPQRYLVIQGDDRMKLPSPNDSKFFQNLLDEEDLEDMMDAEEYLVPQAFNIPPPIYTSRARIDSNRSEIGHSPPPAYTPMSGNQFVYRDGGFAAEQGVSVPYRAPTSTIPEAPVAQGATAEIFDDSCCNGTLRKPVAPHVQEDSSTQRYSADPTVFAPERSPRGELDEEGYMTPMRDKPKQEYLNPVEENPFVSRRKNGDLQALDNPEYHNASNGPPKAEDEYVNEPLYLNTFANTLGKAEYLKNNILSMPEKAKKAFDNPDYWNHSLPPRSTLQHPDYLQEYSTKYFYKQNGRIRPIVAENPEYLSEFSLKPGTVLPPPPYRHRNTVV
T2 sequence (P04626 23-1255): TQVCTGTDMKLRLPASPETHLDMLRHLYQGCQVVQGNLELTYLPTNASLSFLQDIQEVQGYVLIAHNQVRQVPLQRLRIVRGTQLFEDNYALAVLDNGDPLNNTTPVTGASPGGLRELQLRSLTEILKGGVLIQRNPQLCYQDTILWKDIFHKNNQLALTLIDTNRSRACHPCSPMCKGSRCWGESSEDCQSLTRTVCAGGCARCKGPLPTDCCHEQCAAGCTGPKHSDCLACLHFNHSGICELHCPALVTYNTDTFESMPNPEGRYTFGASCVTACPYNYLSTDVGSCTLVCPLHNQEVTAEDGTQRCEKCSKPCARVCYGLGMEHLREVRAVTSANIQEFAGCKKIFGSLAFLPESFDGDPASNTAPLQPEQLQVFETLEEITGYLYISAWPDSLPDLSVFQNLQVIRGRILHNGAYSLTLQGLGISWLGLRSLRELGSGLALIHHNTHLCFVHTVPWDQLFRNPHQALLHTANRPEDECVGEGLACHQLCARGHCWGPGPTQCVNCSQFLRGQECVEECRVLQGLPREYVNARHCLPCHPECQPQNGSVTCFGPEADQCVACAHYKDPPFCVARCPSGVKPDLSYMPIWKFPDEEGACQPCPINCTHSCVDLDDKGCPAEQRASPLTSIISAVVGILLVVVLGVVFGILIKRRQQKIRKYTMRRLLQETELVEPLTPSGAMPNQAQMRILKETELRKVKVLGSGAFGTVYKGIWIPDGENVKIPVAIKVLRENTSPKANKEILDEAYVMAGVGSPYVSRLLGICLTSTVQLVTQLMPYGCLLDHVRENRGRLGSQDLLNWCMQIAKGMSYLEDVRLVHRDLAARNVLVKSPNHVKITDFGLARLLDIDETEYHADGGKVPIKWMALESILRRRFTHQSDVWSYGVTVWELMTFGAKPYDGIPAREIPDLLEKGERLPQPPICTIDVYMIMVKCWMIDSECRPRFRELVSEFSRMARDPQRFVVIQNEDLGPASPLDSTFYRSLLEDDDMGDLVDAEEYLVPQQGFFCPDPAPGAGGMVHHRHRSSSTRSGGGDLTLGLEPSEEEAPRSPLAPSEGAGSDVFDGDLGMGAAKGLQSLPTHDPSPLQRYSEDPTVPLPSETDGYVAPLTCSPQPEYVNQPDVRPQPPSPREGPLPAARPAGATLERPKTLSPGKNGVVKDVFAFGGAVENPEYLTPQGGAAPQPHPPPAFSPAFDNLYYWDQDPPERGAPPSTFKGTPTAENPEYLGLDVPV
T1 sequence (P00533 25-1210): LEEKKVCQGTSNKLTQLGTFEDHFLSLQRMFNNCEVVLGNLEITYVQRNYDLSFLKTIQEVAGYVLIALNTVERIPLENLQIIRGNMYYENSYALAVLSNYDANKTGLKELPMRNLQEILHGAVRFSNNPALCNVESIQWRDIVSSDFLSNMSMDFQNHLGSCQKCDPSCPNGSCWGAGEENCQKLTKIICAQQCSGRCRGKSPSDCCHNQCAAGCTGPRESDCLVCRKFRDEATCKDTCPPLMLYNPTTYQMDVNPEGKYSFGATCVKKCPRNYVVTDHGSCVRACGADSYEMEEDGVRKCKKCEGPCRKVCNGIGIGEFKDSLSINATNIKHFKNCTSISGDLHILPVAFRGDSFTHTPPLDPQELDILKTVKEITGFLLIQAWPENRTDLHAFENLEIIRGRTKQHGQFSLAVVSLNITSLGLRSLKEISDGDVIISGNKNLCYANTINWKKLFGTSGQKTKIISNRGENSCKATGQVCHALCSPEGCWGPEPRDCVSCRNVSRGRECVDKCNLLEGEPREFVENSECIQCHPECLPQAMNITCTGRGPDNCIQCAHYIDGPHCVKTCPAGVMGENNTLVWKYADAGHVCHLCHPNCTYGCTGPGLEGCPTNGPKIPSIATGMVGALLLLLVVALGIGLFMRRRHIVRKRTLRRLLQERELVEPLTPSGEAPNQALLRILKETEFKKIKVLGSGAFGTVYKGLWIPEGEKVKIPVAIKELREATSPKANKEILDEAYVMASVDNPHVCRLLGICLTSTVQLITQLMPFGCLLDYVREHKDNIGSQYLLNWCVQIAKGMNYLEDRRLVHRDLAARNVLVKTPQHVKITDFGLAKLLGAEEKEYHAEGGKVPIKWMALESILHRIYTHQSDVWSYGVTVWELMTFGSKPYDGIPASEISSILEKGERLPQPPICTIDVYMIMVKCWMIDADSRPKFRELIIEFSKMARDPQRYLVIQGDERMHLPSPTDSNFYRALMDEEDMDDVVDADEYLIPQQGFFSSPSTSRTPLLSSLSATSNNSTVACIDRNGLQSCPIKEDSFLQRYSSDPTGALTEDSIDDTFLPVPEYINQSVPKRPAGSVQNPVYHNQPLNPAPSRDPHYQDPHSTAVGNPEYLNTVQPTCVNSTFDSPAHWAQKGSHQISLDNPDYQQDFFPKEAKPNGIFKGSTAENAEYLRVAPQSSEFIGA
T4 sequence (P12931 whole entry): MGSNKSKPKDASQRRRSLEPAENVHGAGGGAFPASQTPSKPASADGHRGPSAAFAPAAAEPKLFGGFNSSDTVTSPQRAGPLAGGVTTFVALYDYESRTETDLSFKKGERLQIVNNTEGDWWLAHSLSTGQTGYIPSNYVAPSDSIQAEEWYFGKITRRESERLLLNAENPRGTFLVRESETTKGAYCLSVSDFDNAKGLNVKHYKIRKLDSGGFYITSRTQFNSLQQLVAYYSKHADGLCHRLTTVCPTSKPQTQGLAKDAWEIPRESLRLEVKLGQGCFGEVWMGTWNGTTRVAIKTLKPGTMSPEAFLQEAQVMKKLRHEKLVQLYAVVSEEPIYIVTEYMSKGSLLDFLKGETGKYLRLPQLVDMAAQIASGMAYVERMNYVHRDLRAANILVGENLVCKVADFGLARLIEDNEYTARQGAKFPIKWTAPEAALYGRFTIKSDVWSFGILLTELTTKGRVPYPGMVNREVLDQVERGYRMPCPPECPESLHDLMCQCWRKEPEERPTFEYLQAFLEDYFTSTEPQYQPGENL

Structure (SMILES) | IC50 (HepG2) [µM] | IC50 (Caco-2) [µM] | melting point [°C] | IC50 (MCF-7; [1]) [µM] | IC50 (HCT-116; [2]) [µM] | other results
Cc1ccc(-c2cc(C(F)(F)F)nn2-c2ccc(S(N)(=O)=O)cc2)cc1 [Celecoxib, reference compound] | 25.6 ± 2.3 | 42.7 ± 3.1 |  |  |  | IC50 (MCF-7; Homo sapiens, MCF7, read-out: IC50 (μM) MCF-7): 31.3 ± 2.5 µM; IC50 (HCT-116; Homo sapiens, HCT-116, read-out: IC50 (μM) HCT-116): 29.5 ± 2.1 µM
CC(C(=O)SC1CCCCC1)c1cccc(C(=O)c2ccccc2)c1 (stereo not drawn) [2b, S-cyclohexyl-2–(3-benzoylphenyl)propanethioate] | 9.36 ± 0.79 | 21.7 ± 1.9 | 69 to 70 | 11.9 ± 1.13 | 18.7 ± 1.5 | inhibition at 10 µM (EGFR): 0%; inhibition at 10 µM (HER2): 1%; inhibition at 10 µM (HER4): 5%; inhibition at 10 µM (cSrc): 4%; IC50 (COX-1): > 50 µM; IC50 (COX-2): 0.66 ± 0.052 µM; SI, selectivity index (COX-1 IC50/COX-2 IC50) (COX-2): >75.8
CC1=C(CC(=O)SC2CCCCC2)c2cc(F)ccc2C1=Cc1ccc([S+](C)[O-])cc1 (stereo not drawn) [8b, S-cyclohexyl-2–(5-fluoro-2-methyl-1–(4-(methylsulfinyl)benzylidene)-1H-inden-3-yl)ethanethioate] | 22.3 ± 1.96 | 43.8 ± 2.96 | 121 to 122 | 34.1 ± 2.07 | 46.7 ± 2.93 | IC50 (COX-1): > 50 µM; IC50 (COX-2): 0.6 ± 0.055 µM; SI, selectivity index (COX-1 IC50/COX-2 IC50) (COX-2): >83.3
CN(C)C/C=C/C(=O)Nc1cc2c(Nc3ccc(F)c(Cl)c3)ncnc2cc1O[C@H]1CCOC1 [Afatinib, reference compound] | 5.4 ± 0.25 | 7.7 ± 0.57 |  | 7.1 ± 0.49 | 6.2 ± 0.67 | 
O=c1[nH]cc(F)c(=O)[nH]1 [5-FU, 5-Fluorouracil, reference compound] | 7.91 ± 0.28 | 6.85 ± 0.34 |  | 5.43 ± 0.2 | 5.32 ± 0.17 | 
O=C(Cc1ccccc1Nc1c(Cl)cccc1Cl)SC1CCCCC1 [6b, S-cyclohexyl-2–(2-((2,6-dichlorophenyl)amino)phenyl)ethanethioate] | > 100 | > 100 | 88 to 90 |  | 91.2 ± 4.96 | IC50 (MCF-7; [3]): 95.3 ± 4.96 µM
CC(C)Cc1ccc(C(C)C(=O)SC2CCCCC2)cc1 (stereo not drawn) [1b, S-cyclohexyl-2–(4-isobutylphenyl)propanethioate] | > 100 | > 100 |  | > 100 | 97.6 ± 5.12 | 
CC(C)Cc1ccc(C(C)C(=O)Sc2ccccc2)cc1 (stereo not drawn) [1a, S-phenyl-2–(4-isobutylphenyl)propanethioate] | 85.1 ± 4.53 | 94.8 ± 4.92 |  | 80.4 ± 4.58 | 89.6 ± 4.68 | 
COc1ccc2cc(C(C)C(=O)SC3CCCCC3)ccc2c1 [5b, S-cyclohexyl-(S)-2–(6-methoxynaphthalen-2-yl)propanethioate] | 19.7 ± 1.57 | 35.6 ± 2.62 | 105 to 106 | 28.9 ± 1.58 | 39.5 ± 2.61 | 
COc1ccc2cc(C(C)C(=O)Sc3ccccc3)ccc2c1 [5a, S-phenyl-(S)-2–(6-methoxynaphthalen-2-yl)propanethioate] | 36.8 ± 2.7 | 63.8 ± 3.58 | 115 to 117 | 42.6 ± 2.67 | 51.2 ± 3.71 | 
CC1=C(CC(=O)Sc2ccccc2)c2cc(F)ccc2C1=Cc1ccc([S+](C)[O-])cc1 (stereo not drawn) [8a, S-phenyl-2–(5-fluoro-2-methyl-1–(4-(methylsulfinyl)benzylidene)-1H-inden-3-yl)ethanethioate] | 7.35 ± 0.34 | 15.4 ± 1.37 |  | 8.62 ± 0.72 | 9.73 ± 0.85 | inhibition at 10 µM (EGFR): 6%; inhibition at 10 µM (HER2): 0%; inhibition at 10 µM (HER4): 10%; inhibition at 10 µM (cSrc): 4%; IC50 (COX-1): > 50 µM; IC50 (COX-2): 0.2 ± 0.016 µM; SI, selectivity index (COX-1 IC50/COX-2 IC50) (COX-2): >250.0
CN[C@@H]1C[C@H]2O[C@@](C)([C@@H]1OC)n1c3ccccc3c3c4c(c5c6ccccc6n2c5c31)C(=O)NC4 [Staurosporine, reference compound] |  |  |  |  |  | inhibition at 1 µM (cSrc; read-out: % inhibition cSrc): 100%
CC(=O)Oc1ccccc1C(=O)SC1CCCCC1 [4b, 2-[(Cyclohexylthio)carbonyl]phenyl acetate] | 63.6 ± 3.91 | 68.8 ± 3.79 | 55 to 56 | 46.5 ± 2.84 | 76.5 ± 4.22 | 
CC(C(=O)Sc1ccccc1)c1cccc(C(=O)c2ccccc2)c1 (stereo not drawn) [2a, S-phenyl-2–(3-benzoylphenyl)propanethioate] | 59.8 ± 3.55 | 72.2 ± 4.06 | 96 to 98 |  |  | IC50 (MCF-7; [3]): 48.1 ± 3.15 µM; IC50 (HCT-116; read-out: IC50 (μM) HCT-116, human colon cancer cell line, MTT, mean ± SD, n = 3): 61.3 ± 3.97 µM
CC(C(=O)SC1CCCCC1)c1ccc(-c2ccccc2)c(F)c1 (stereo not drawn) [3b, S-cyclohexyl-2–(2-fluoro-[1,1′-biphenyl]-4-yl)propanethioate] | 10.5 ± 0.98 | 26.8 ± 2.17 | 90 to 92 | 13.7 ± 1.19 | 23.8 ± 1.8 | inhibition at 10 µM (EGFR): 0%; inhibition at 10 µM (HER2): 0%; inhibition at 10 µM (HER4): 3%; inhibition at 10 µM (cSrc): 3%; IC50 (COX-1): > 50 µM; IC50 (COX-2): 0.69 ± 0.057 µM; SI, selectivity index (COX-1 IC50/COX-2 IC50) (COX-2): >72.5
CC(C(=O)Sc1ccccc1)c1ccc(-c2ccccc2)c(F)c1 (stereo not drawn) [3a, S-phenyl-2–(2-fluoro-[1,1′-biphenyl]-4-yl)propanethioate] | 68.8 ± 3.87 | 76.5 ± 4.38 | 85 to 86 | 63.6 ± 3.62 | 78.1 ± 4.08 | 
CC(=O)Oc1ccccc1C(=O)Sc1ccccc1 [4a, 2-[(Phenylthio)carbonyl]phenyl acetate] | 71.1 ± 4.11 | 80.2 ± 4.5 | 72 to 73 | 73.7 ± 3.92 | 85.4 ± 4.57 | 

Reference: publication PMC6009944, “Synthesis, antitumour activities and molecular docking of thiocarboxylic acid ester-based NSAID scaffolds: COX-2 inhibition and mechanistic studies” (Journal of Enzyme Inhibition and Medicinal Chemistry, 2018)
